Measurements from US10112907B2, “Substituted indazoles for treating tendon and/or ligament injuries” (NOVARTIS AG, priority 2016, dated 2018).
Read-outs that look alike come from different tables or passages of the source.

Experiments:
[1] = test system: Scleraxis (Scx) gene transcriptional activation in TT-D6 Scx-luciferase (ScxL) cell line; experiment: SCX-LUC in vitro assay (Scx-luciferase reporter); assay type: cell-based; conditions: Mus musculus
[2] = test system: Scleraxis (Scx) gene expression in rat tail tendon fascicles; experiment: Ex vivo assay, Scx mRNA in tendon fascicles (qPCR); assay type: cell-based, Sprague Dawley rat; conditions: 96 h, Table 3, four days, read-out: Ex vivo Scx (EC50 μM)
[3] = test system: Tenomodulin (Tnmd) gene expression in rat tail tendon fascicles; experiment: Ex vivo assay, Tnmd mRNA in tendon fascicles (qPCR); assay type: cell-based, Sprague Dawley rat; conditions: 96 h, Table 3, four days, read-out: Ex vivo Tnmd (EC50 μM)
[4] = test system: collagen type I (Col1a2) gene expression in rat tail tendon fascicles; experiment: Ex vivo assay, Col1a2 mRNA in tendon fascicles (qPCR); assay type: cell-based, Sprague Dawley rat; conditions: 96 h, Table 3, four days, read-out: Ex vivo Col1a2 (EC50 μM)
[5] = 96 h, Table 3, four days, read-out: Scx-Luc (EC50 μM)

Row | EC50 [1, 5] | EC50 [2] | EC50 [3] | EC50 [4] | SMILES | EC50 ([1]; Table 1, read-out: Scx-Luc (EC50 uM))
1 | 0.511 µM | 1.64 µM | 0.513 µM | 1.55 µM | Cc1cc(S(=O)(=O)N2CC[C@@H](O)C2)ccc1-c1ccc2[nH]nc(N)c2c1C [Example 4, (R)-1-((4-(3-amino-4-methyl-1H-indazol-5-yl)-3-methylphenyl)sulfonyl)pyrrolidin-3-ol] | –
2 | 0.275 µM | 3.62 µM | 1.6 µM | 2.63 µM | Cc1cc(S(=O)(=O)N2CC[C@H](O)C2)ccc1-c1ccc2[nH]nc(N)c2c1C [Example 5, (S)-1-((4-(3-amino-4-methyl-1H-indazol-5-yl)-3-methylphenyl)sulfonyl)pyrrolidin-3-ol] | –
3 | 2.02 µM | 5.35 µM | 0.463 µM | 3.31 µM | Cc1cc(S(=O)(=O)N2CC[C@@H](O)C2)ccc1-c1ccc2[nH]nc(N)c2c1Cl [Example 7, (R)-1-((4-(3-amino-4-chloro-1H-indazol-5-yl)-3-methylphenyl)sulfonyl)pyrrolidin-3-ol] | –
4 | 2.21 µM | 1.73 µM | 10 µM | 10 µM | Cc1cc(S(=O)(=O)N[C@H]2C[C@@H](O)C2)ccc1-c1ccc2[nH]nc(N)c2c1C [Example 12, 4-(3-amino-4-methyl-1H-indazol-5-yl)-N-((1s,3s)-3-hydroxycyclobutyl)-3-methylbenzenesulfonamide] | –
5 | 3.92 µM | 7.28 µM | 6.97 µM | 2.64 µM | Cc1cc(S(=O)(=O)N2CCC(O)CC2)ccc1-c1ccc2[nH]nc(N)c2c1C [Example 14, 1-((4-(3-amino-4-methyl-1H-indazol-5-yl)-3-methylphenyl)sulfonyl)piperidin-4-ol] | –
6 | 0.638 µM | 1.75 µM | 0.447 µM | 0.557 µM | Cc1cc(S(=O)(=O)N[C@@H]2CCCC[C@H]2O)ccc1-c1ccc2[nH]nc(N)c2c1C [Example 16, 4-(3-amino-4-methyl-1H-indazol-5-yl)-N-((1R,2R)-2-hydroxycyclohexyl)-3-methylbenzenesulfonamide] | –
7 | 0.468 µM | 2.52 µM | 1.06 µM | 2.53 µM | Cc1cc(S(=O)(=O)N[C@@H]2CCC[C@@H]2O)ccc1-c1ccc2[nH]nc(N)c2c1C [Example 18, 4-(3-amino-4-methyl-1H-indazol-5-yl)-N-((1R,2S)-2-hydroxycyclopentyl)-3-methylbenzenesulfonamide] | –
8 | 0.359 µM | – | – | – | Cc1cc(S(=O)(=O)N[C@@H]2CCC[C@@H]2O)ccc1-c1ccc2[nH]nc(N)c2c1F [Example 75, 4-(3-amino-4-fluoro-1H-indazol-5-yl)-N-((1R,2S)-2-hydroxycyclopentyl)-3-methylbenzenesulfonamide] | –
9 | 0.171 µM | – | – | – | Nc1n[nH]c2ccc(-c3ccc(S(=O)(=O)N[C@@H]4CCC[C@@H]4O)cc3Cl)c(F)c12 [Example 76, 4-(3-amino-4-fluoro-1H-indazol-5-yl)-3-chloro-N-((1R,2S)-2-hydroxycyclopentyl)benzenesulfonamide] | –
10 | 0.692 µM | – | – | – | Cc1cc(S(=O)(=O)N2CCC(F)(F)C2)ccc1-c1ccc2[nH]nc(N)c2c1C [Example 77, 5-(4-((3,3-difluoropyrrolidin-1-yl)sulfonyl)-2-methylphenyl)-4-methyl-1H-indazol-3-amine] | –
11 | 1.52 µM | – | – | – | Cc1cc(S(=O)(=O)N2CCCC(F)(F)C2)ccc1-c1ccc2[nH]nc(N)c2c1C [Example 79, 5-(4-((3,3-difluoropiperidin-1-yl)sulfonyl)-2-methylphenyl)-4-methyl-1H-indazol-3-amine] | –
12 | 2.53 µM | – | – | – | Cc1cc(S(=O)(=O)N2CCC(F)(F)CC2)ccc1-c1ccc2[nH]nc(N)c2c1C [Example 80, 5-(4-((4,4-difluoropiperidin-1-yl)sulfonyl)-2-methylphenyl)-4-methyl-1H-indazol-3-amine] | –
13 | 0.372 µM | – | – | – | Cc1cc(S(=O)(=O)N2CC(F)(F)C[C@H]2C(N)=O)ccc1-c1ccc2[nH]nc(N)c2c1C [Example 81, (S)-1-((4-(3-amino-4-methyl-1H-indazol-5-yl)-3-methylphenyl)sulfonyl)-4,4-difluoropyrrolidine-2-carboxamide] | –
14 | 0.524 µM | – | – | – | Cc1cc(S(=O)(=O)N2C[C@@H](F)[C@@H](F)C2)ccc1-c1ccc2[nH]nc(N)c2c1C [Example 82, Meso-5-(4-(((3R,4S)-3,4-difluoropyrrolidin-1-yl)sulfonyl)-2-methylphenyl)-4-methyl-1H-indazol-3-amine] | –
15 | 0.467 µM | – | – | – | Cc1cc(S(=O)(=O)N(C)C2CC(O)(C(F)(F)F)C2)ccc1-c1ccc2[nH]nc(N)c2c1C (stereo not drawn) [Example 83, 4-(3-amino-4-methyl-1H-indazol-5-yl)-N-((1s,3s)-3-hydroxy-3-(trifluoromethyl)cyclobutyl)-N,3-dimethylbenzenesulfonamide] | –
16 | 1.69 µM | – | – | – | Cc1cc(S(=O)(=O)N(C)[C@@H]2CCC[C@@H]2O)ccc1-c1ccc2[nH]nc(N)c2c1C [Example 84, 4-(3-amino-4-methyl-1H-indazol-5-yl)-N-((1R,2S)-2-hydroxycyclopentyl)-N,3-dimethylbenzenesulfonamide] | –
17 | 1.79 µM | – | – | – | COc1c(-c2ccc(S(=O)(=O)N3CC(F)(F)C[C@H]3CO)cc2C)ccc2[nH]nc(N)c12 [Example 85, (S)-(1-((4-(3-amino-4-methoxy-1H-indazol-5-yl)-3-methylphenyl)sulfonyl)-4,4-difluoropyrrolidin-2-yl)methanol] | –
18 | 0.731 µM | – | – | – | COc1c(-c2ccc(S(=O)(=O)N3CC(F)(F)C[C@H]3CO)cc2Cl)ccc2[nH]nc(N)c12 [Example 86, (S)-(1-((4-(3-amino-4-methoxy-1H-indazol-5-yl)-3-chlorophenyl)sulfonyl)-4,4-difluoropyrrolidin-2-yl)methanol] | –
19 | 0.288 µM | – | – | – | Cc1cc(S(=O)(=O)N2C[C@H](F)C[C@H]2CO)ccc1-c1ccc2[nH]nc(N)c2c1C [Example 87, ((2S,4R)-1-((4-(3-amino-4-methyl-1H-indazol-5-yl)-3-methylphenyl)sulfonyl)-4-fluoropyrrolidin-2-yl)methanol] | –
20 | 0.22 µM | – | – | – | Cc1cc(S(=O)(=O)N2CC(F)(F)C[C@@H]2CO)ccc1-c1ccc2[nH]nc(N)c2c1C [Example 88, (R)-(1-((4-(3-amino-4-methyl-1H-indazol-5-yl)-3-methylphenyl)sulfonyl)-4,4-difluoropyrrolidin-2-yl)methanol] | –
21 | 0.554 µM | – | – | – | Cc1c(-c2c(F)cc(S(=O)(=O)N3CC(F)(F)C[C@H]3CO)cc2F)ccc2[nH]nc(N)c12 [Example 89, (S)-(1-((4-(3-amino-4-methyl-1H-indazol-5-yl)-3,5-difluorophenyl)sulfonyl)-4,4-difluoropyrrolidin-2-yl)methanol] | –
22 | 2.91 µM | – | – | – | Cc1cc(-c2ccc3[nH]nc(N)c3c2C)ccc1S(=O)(=O)N1CC(F)(F)C[C@H]1CO [Example 91, (S)-(1-((4-(3-amino-4-methyl-1H-indazol-5-yl)-2-methylphenyl)sulfonyl)-4,4-difluoropyrrolidin-2-yl)methanol] | –
23 | 1.01 µM | – | – | – | Cc1cc(S(=O)(=O)N2C[C@@H](F)C[C@H]2CO)ccc1-c1ccc2[nH]nc(N)c2c1C [Example 92, ((2S,4S)-1-((4-(3-amino-4-methyl-1H-indazol-5-yl)-3-methylphenyl)sulfonyl)-4-fluoropyrrolidin-2-yl)methanol] | –
24 | – | – | – | – | Cc1cnc(Nc2ccc(OCCN3CCCC3)cc2)nc1Nc1cccc(S(=O)(=O)NC(C)(C)C)c1 [reference compound] | 0.62 µM
